Experimental data: patent US20030176436A1, “Novel heterocyclic compounds as selective bacterial DHFR inhibitors and their uses thereof” (priority 2001, published 2003)
Converted amounts (≈) assume the structure as drawn. Where two headings read alike, the source gives them in different places.

Assays:
bacterial DHFR (bDHFR) = molecular target: T1, bacterial DHFR (bDHFR) (Escherichia coli, UniProt P0ABQ4); test: DHFR enzyme assay, Ki determination, bacterial DHFR; assay type: biochemical, E. coli
T1 construct: gift of Eric Brown, McMaster University
Method: Human and Bacterial DHFR: E. coli DHFR was kindly provided by Eric Brown of MacMaster University.
(§1) Dihydrofolic acid and NADPH were purchased from Sigma. Enzyme assays were adapted for microtitre format from a previously published procedure (2, 3). All assays were performed in a 250 μl volume in 96-well microtitre plates. Typical assays consisted of 20 nM DHFR (human or E. coli), 100 μM NADPH, and 50 μM dihydrofolic acid in 100 mM HEPES pH 8, 10 mM KCl, and 10 mM MgCl2. The assay was monitored spectrophotometrically for the conversion of NADPH to NADP+, which results in a decrease in absorbance at 340 nm.
(§2) The reaction was initiated by the addition of 125 μl of 100 μM dihydrofolic acid. The final concentrations in the assay were 20 nM DHFR, 100 μM NADPH, 50 μM dihydrofolic acid, and a range of 500 μM to 20 nM inhibitor compound. The final DMSO concentration was 2% of the total volume. Reactions were monitored as described above.

S. aureus = test: Microdilution antimicrobial susceptibility test (MIC); assay type: cell-based; settings: Staphylococcus aureus; MIC, average; read-out: S. aureus (μg/ml) avg
Method: Stock solutions of tested compounds were prepared in N,N-dimethylformamide (DMF) at a concentration of 5 mg/mL. Working solutions of the tested compounds were then prepared from the stock solutions, in Mueller-Hinton broth (MHB) with a starting concentration of 64 μg/mL.
Bacterial inocula were prepared from overnight culture (i.e., one fresh colony from agar plate in 5 ml MHB; H. influenzae was grown in MHB with the addition of yeast extract, haematin, and NAD), centrifuged 2×5 min/3000 rpm (for S. pneumoniae and H. influenzae, 2×10 min/3000 rpm), and dispensed in 5 ml of fresh MHB each time, such that the bacterial suspension is diluted to obtain 100 colony forming units (cfu) in a microplate well (100 μl total volume).
Microplate wells were filled with two-fold dilutions of test compound (50 μl), starting with 64 μg/ml. Wells were then filled with 50 μl of bacterial inoculum (final volume: 100 μl/well). The plates were incubated at 37° C. for 18-24 hours (S. pneumoniae was grown in a CO2-enriched atmosphere).

human DHFR (hDHFR) = molecular target: T2, human DHFR (hDHFR) (Homo sapiens, UniProt P00374); test: DHFR enzyme assay, Ki determination, human DHFR; assay type: biochemical; settings: Table 3
T2 construct: result in the amplification of a 186 amino acid hDHFR coding region; made in house; host or cells: E. coli Top10
T2 sequence (P00374 1-187): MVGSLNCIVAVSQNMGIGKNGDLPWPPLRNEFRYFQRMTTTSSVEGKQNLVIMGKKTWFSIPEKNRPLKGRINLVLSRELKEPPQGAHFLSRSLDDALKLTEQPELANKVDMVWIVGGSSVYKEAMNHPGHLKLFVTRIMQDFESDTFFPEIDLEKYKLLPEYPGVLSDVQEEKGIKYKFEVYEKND
Method: The human DHFR cDNA was cloned by PCR from the Human Universal Quick-clone™ cDNA purchased from Clontech.
The PCR fragment was digested with restriction enzymes NdeI and HindIII, and then ligated into a derivative of the pKK223-3 expression vector (Amersham Pharmacia). The final expression vector (pFW96.2) was transformed into E. coli Top10 F40 and hDHFR protein was induced by the addition of 1 mM IPTG followed by incubation at 37° C. for 4 hrs. Recombinant human DHFR was purified based on a previously published procedure (2).
as §1
as §2, with “Five microliters of inhibitor compound in DMSO was added to 120 μl of enzyme solution (40 nM DHFR and 200 μM NADPH). The reaction” for “The reaction”
V=(Vmax[S])/(Km(1+I/Ki)+[S]), where S=dihydrofolate, Km=Michaelis constant for dihydrofolate, I=inhibitor concentration.

[1] = average, read-out: bDHFR Ki/(μM) avg
[2] = second part of table, read-out: bDHFR

Structure (SMILES)	Ki (bacterial DHFR (bDHFR); [1])	MIC (S. aureus)	Ki (bacterial DHFR (bDHFR); [2])	Ki (bacterial DHFR (bDHFR); bDHFR Ki/(μM) avg, average)	Ki (human DHFR (hDHFR))	Ki (bacterial DHFR (bDHFR); Table 3, read-out: bDHFR Ki)
CC(c1ccc(OCc2c(F)cccc2Cl)cc1)N(C)c1ncc2c(N)nc(N)nc2n1 (stereo not shown) [Compound 48]	0.007 µM	2 µg/mL (≈ 4.41 µM)				
Cc1ccc(C(F)(F)F)cc1NCc1cnc2nc(N)nc(N)c2n1 [Compound 64]			0.385 µM			
CCCOCCN(c1ncc2c(N)nc(N)nc2n1)C(C)c1cccc2ccccc12 (stereo not shown) [Compound 49]	0.02 µM	2 µg/mL (≈ 4.79 µM)				
Cc1ccc([C@@H](C)N(CC2CC2)c2ncc3c(N)nc(N)nc3n2)c2ccccc12 [Compound 54]	0.01 µM	2 µg/mL (≈ 5.01 µM)				
CCC(c1cccc2ccccc12)N(C)c1ncc2c(N)nc(N)nc2n1 (single isomer, unassigned) [Compound 41]	0.037 µM	< 0.125 µg/mL				
CC[C@H](c1cccc2ccccc12)N(C)c1ncc2c(N)nc(N)nc2n1 [Compound 42]	0.004 µM	< 0.125 µg/mL				
CC(c1cc(Cl)cc2ccccc12)N(C)c1ncc2c(N)nc(N)nc2n1 (stereo not shown) [Compound 35]	0.037 µM	0.5 µg/mL (≈ 1.32 µM)				
CCC(c1cccc2ccccc12)N(C)c1ncc2c(N)nc(N)nc2n1 (stereo not shown) [Compound 33]		0.015 µg/mL (≈ 0.0417 µM)	0.012 µM	0.012 µM		
C=CCN(Cc1cnc2nc(N)nc(N)c2n1)c1ccccc1 [Compound 46]	0.093 µM	2 µg/mL (≈ 6.51 µM)				
CCCC(c1cccc2ccccc12)N(C)c1ncc2c(N)nc(N)nc2n1 (stereo not shown) [Compound 43]	0.004 µM	< 0.125 µg/mL				
Cc1[nH]ncc1CCCN(c1ncc2c(N)nc(N)nc2n1)C(C)c1cccc2ccccc12 (stereo not shown) [Compound 51]	0.022 µM	2 µg/mL (≈ 4.41 µM)				
CCN(c1ncc2c(N)nc(N)nc2n1)C(C)c1ccc(C)c2ccccc12 (stereo not shown) [Compound 50]	0.004 µM	2 µg/mL (≈ 5.36 µM)				
Nc1nc(N)c2cnc(NCc3ccc(Oc4ccc(F)cc4)cc3)nc2n1 [Compound 66]					> 500000 nM	< 1 µM
CC(c1c2c(cc3ccccc13)CCCC2)N(CC1CC1)c1ncc2c(N)nc(N)nc2n1 (stereo not shown) [Compound 31]	0.024 µM	1 µg/mL (≈ 2.27 µM)				
CCc1ccc2ccccc2c1C(C)N(C)c1ncc2c(N)nc(N)nc2n1 (stereo not shown) [Compound 56]	0.093 µM	2 µg/mL (≈ 5.36 µM)				
Nc1nc(N)c2nc(COc3cc([N+](=O)[O-])ccc3N)cnc2n1 [Compound 13]					> 5000 nM	0.5 to 0.999 µM
Nc1nc(N)c2nc(CNc3cccc(OCc4ccccc4)c3)cnc2n1 [Compound 20]	0.062 µM	0.5 µg/mL (≈ 1.34 µM)				
CCCN(Cc1cnc2nc(N)nc(N)c2n1)c1ccccc1 [Compound 61]	0.013 µM	2 µg/mL (≈ 6.46 µM)				
C=CCN(c1ncc2c(N)nc(N)nc2n1)C(C)c1cccc2ccccc12 (stereo not shown) [Compound 34]	0.014 µM	1 µg/mL (≈ 2.69 µM)				
Nc1nc(N)c2nc(CNc3ccc(Cl)c4ccccc34)cnc2n1 [Compound 63]			0.104 µM			
CN(Cc1cnc2nc(N)nc(N)c2n1)c1ccc(C(=O)NCCCCN)cc1 [Compound 2]					1000 to 5000 nM	0.1 to 0.499 µM
CCC(c1ccc(Cl)c2ccccc12)N(C)c1ncc2c(N)nc(N)nc2n1 (stereo not shown) [Compound 44]	0.004 µM	< 0.125 µg/mL				
CC(c1ccc(Cl)c2ccccc12)N(C)c1ncc2c(N)nc(N)nc2n1 (stereo not shown) [Compound 30]	0.028 µM	< 0.125 µg/mL	0.024 µM			

Structure (SMILES)	Ki (bacterial DHFR (bDHFR); [1])	MIC (S. aureus)	Ki (bacterial DHFR (bDHFR); [2])	Ki (bacterial DHFR (bDHFR); bDHFR Ki/(μM) avg, average)	Ki (human DHFR (hDHFR))	Ki (bacterial DHFR (bDHFR); Table 3, read-out: bDHFR Ki)
CC(c1cccc2ccccc12)N(CCc1ccc(Cl)cc1)c1ncc2c(N)nc(N)nc2n1 (stereo not shown) [Compound 57]	0.011 µM	2 µg/mL (≈ 4.26 µM)				
CC(c1ccc(F)c2ccccc12)N(C)c1ncc2c(N)nc(N)nc2n1 (stereo not shown) [Compound 23]	0.027 µM	1 µg/mL (≈ 2.75 µM)				
CC(c1c2c(cc3ccccc13)CCCC2)N(C)c1ncc2c(N)nc(N)nc2n1 (stereo not shown) [Compound 27]	0.008 µM	0.5 µg/mL (≈ 1.25 µM)				
CC(c1cccc2ccccc12)N(CCc1cccc(F)c1)c1ncc2c(N)nc(N)nc2n1 (stereo not shown) [Compound 47]	0.023 µM	2 µg/mL (≈ 4.41 µM)				
CC(c1ccc(Cl)c2ccccc12)N(CC1CC1)c1ncc2c(N)nc(N)nc2n1 (stereo not shown) [Compound 55]	0.019 µM	2 µg/mL (≈ 4.76 µM)				
CC(c1cccc2ccccc12)N(CCCCO)c1ncc2c(N)nc(N)nc2n1 (stereo not shown) [Compound 58]	0.015 µM	2 µg/mL (≈ 4.96 µM)				
CCOc1ccc2ccccc2c1CN(C)c1ncc2c(N)nc(N)nc2n1 [Compound 29]	0.02 µM	< 0.125 µg/mL	< 0.02 µM			
C[C@H](c1csc2ccccc12)N(CC1CC1)c1ncc2c(N)nc(N)nc2n1 [Compound 59]	0.005 µM	2 µg/mL (≈ 5.11 µM)				
C[C@H](c1cccc2ccccc12)N(C)c1ncc2c(N)nc(N)nc2n1 [Compound 22]	0.002 µM	< 0.125 µg/mL			> 75000 nM	< 0.002 µM
CCc1ccc2ccc(C(C)N(CC3CC3)c3ncc4c(N)nc(N)nc4n3)cc2c1 (stereo not shown) [Compound 53]	0.03 µM	2 µg/mL (≈ 4.84 µM)				
CCN(c1ncc2c(N)nc(N)nc2n1)C(C)c1cccc2ccccc12 (stereo not shown) [Compound 45]	0.008 µM	2 µg/mL (≈ 5.56 µM)				
CC(c1ccc2c3c(cccc13)CC2)N(C)c1ncc2c(N)nc(N)nc2n1 (stereo not shown) [Compound 28]	0.02 µM	< 0.125 µg/mL				
CCC(c1ccc(F)c2ccccc12)N(C)c1ncc2c(N)nc(N)nc2n1 (stereo not shown) [Compound 40]	0.004 µM	< 0.125 µg/mL				
CC(c1cccc2ccccc12)N(C)c1ncc2c(N)nc(N)nc2n1 (stereo not shown) [Compound 24]	0.015 µM	0.25 µg/mL (≈ 0.724 µM)				
CC(c1ccnc2ccccc12)N(C)c1ncc2c(N)nc(N)nc2n1 (stereo not shown) [Compound 39]	0.015 µM	0.25 µg/mL (≈ 0.722 µM)				
CC(c1cccc2ccccc12)N(CCC(C)(C)C)c1ncc2c(N)nc(N)nc2n1 (stereo not shown) [Compound 60]	0.029 µM	2 µg/mL (≈ 4.81 µM)				
C[C@@H](c1ccc(F)c2ccccc12)N(C)c1ncc2c(N)nc(N)nc2n1 [Compound 38]	0.06 µM	0.5 µg/mL (≈ 1.38 µM)				
CC(c1cccc2ccccc12)N(CCc1ccccc1)c1ncc2c(N)nc(N)nc2n1 (stereo not shown) [Compound 26]	0.02 µM	1 µg/mL (≈ 2.3 µM)				
CCN(c1ncc2c(N)nc(N)nc2n1)[C@H](C)c1ccc(F)c2ccccc12 [Compound 37]	0.003 µM	< 0.125 µg/mL				
CCN(c1ncc2c(N)nc(N)nc2n1)[C@H](C)c1ccc(C)c2ccccc12 [Compound 32]	0.011 µM	0.5 µg/mL (≈ 1.34 µM)				
CCN(c1ncc2c(N)nc(N)nc2n1)[C@H](C)c1csc2ccccc12 [Compound 36]	0.005 µM	< 0.125 µg/mL	0.005 µM			
CN(Cc1cnc2nc(N)nc(N)c2n1)c1cccc([N+](=O)[O-])c1 [Compound 21]	0.082 µM	< 0.125 µg/mL	0.082 µM			
Cc1ccc(C(C)N(CC2CC2)c2ncc3c(N)nc(N)nc3n2)c2ccccc12 (stereo not shown) [Compound 52]	0.022 µM	2 µg/mL (≈ 5.01 µM)				
